Measurements: US20100130604A1, “USE OF ROSMARINIC ACID IN MANUFACTURE OF MEDICAMENTS FOR TREATING OR PREVENTING HEPATIC AND RENAL DISEASES” (SHANGDONG LUYE NATURAL DRUG RESEARCH AND DEVELOPMENT CO., …, priority 2006, published 2010)
Like-named read-outs stand apart in the source and are kept apart here.

Experiments:
[1] = test system: HSC-T6 cells; assay: Inhibitory effect of RA on HSC-T6 cell growth (MTT); format: cell-based; details: for inhibition at 0.1 µg/mL / inhibition at 1 µg/mL / inhibition at 10 µg/mL / inhibition at 50 µg/mL / inhibition at 100 µg/mL: HSC-T6, read-out: Inhibition rate (%); for inhibition at 0.1 µg/mL: 0.1 mg/L; for inhibition at 1 µg/mL: 1 mg/L; for inhibition at 10 µg/mL: 10 mg/L; for inhibition at 50 µg/mL: 50 mg/L; for inhibition at 100 µg/mL: 100 mg/L
Description: Cells and experimental groups: HSC cell line was HSC-T6 (Shanghai Biosis Biotechnology Co. Ltd.), with the phenotype of active HSC. The cells were divided into groups for 0, 2.5, 5, 10, 20, and 40 μmol·L^−1 of RA. MTT method (Ye T and Liu X C, Effect of Pentoxifilline on Proliferation of Mesangial Cell Cultured in glucose-rich Medium and on CTGF Expression, Chinese Pharmacological Bulletin, 2004, 20(8): 883-885) was used to determine the effective RA concentration. Effects of RA on HSC-T6 proliferation and CTGF expression were examined.
A 1000 mg/L stock solution of RA in DMEM medium was prepared, and filtered through 0.22 μm microfilter to remove bacteria. The stock was then aliquoted in appropriate containers and stored at −20° C. in dark. It is good for use within 2 weeks. DMEM supplemented with 2% fetal bovine serum (FBS) was used to dilute the stock to desired concentrations before use.
HSC-T6 cells were cultured in DMEM supplemented with 100 U·mL^−1 penicillin, 100 U·mL^−1 streptomycin, and 10% FBS at 37° C., 5% CO2, and saturated humidity. Medium was changed every other day. The culture was digested with 0.002% EDTA and 0.25% trypsin at 80-90% confluence. And the cells were passaged at 1:4.
HSC-T6 cells at logarithmic phase after thawed were digested with trypsin and seeded to 96-well plate in DMEM supplemented with 5% FBS at the density of 1×10^4. After 24 hours culture, different concentrations of RA were added according to table 1. Each concentration of RA was added to 6 wells. Blank wells were designed to serve as control. […] The supernatant was discarded after 4 hours of incubation, and […] of dimethyl sufoxide (DMSO) was added to each well to obtain cell lysate, which was then shaken well before detected for OD value on ELISA reader (492 nm). Cell growth inhibition rates were calculated.

[2] = test system: CTGF mRNA; assay: RT-PCR detection of CTGF mRNA expression in HSC-T6; format: cell-based; details: for CTGF mRNA expression rate (%): control 98.5
Procedure: Total RNA was extracted from the cell lysate obtained in section 2.3 according the manufacturer's instructions with UNIQ-10 column total RNA extraction kit. A UV spectrophotometer was used to measure the concentration and purity. This was repeated three times and the total RNA concentration was calculated.
Reaction system: 1 μL of RT product; 10 μL of 2×PCR Master; 1 μL of each of sense primer and anti-sense primer; added double distilled water to 20 μL.
Sense primer: 5′-[…]-3′;
Anti-sense primer: 5′-[…]-3′; primer length of 383 bp;
Internal standard GAPDH (Kangcheng Bio-tech Inc.), with sense primer as 5′-[…]-3′, anti-sense primer as 5′-[…]-3′, and length of 452 bp;
Reaction conditions: pre-denature at 94° C. for 2 min, denature at 94° C. for 45 s, anneal at 54.9° C. for 30 s, extend at 72° C. for 60 s, extend at 72° C. for 10 min after 35 cycles and detect with 1.2% agarose gel electrophoresis. Scan with gel image system and calculate the ratio of gray scale between CTGF and GAPDH as an indicator of CTGF expression.
According to the results from the MTT method, groups of 0, 10, and 50 mg/L RA were selected and subjected to RT-PCR.

[3] = test system: renal interstitial fibrosis in rats; assay: Renal interstitial fibrosis in rats with unilateral urethral obstruction; format: in vivo, Sprague Dawley rats; details: for HYP: left kidney; for HYP / FN: day 10; for FN: serum
Procedure: 130 rats were randomly divided into 13 groups, namely, a sham operation group, a model group, benazapril p.o. Group at 10 mg/kg, RA i.v. groups at 2.5 mg/kg, 5 mg/kg, 25 mg/kg, 75 mg/kg, and 150 mg/kg of RA, and RA p.o. groups at 2.5 mg/kg, 5 mg/kg, 25 mg/kg, 150 mg/kg, and 300 mg/kg of RA. The animals were acclimated for a week before they were all anaesthetised with an i.p. dose of 10% chloral hydrate at 3.0mL/kg and placed on the operating table in right lateral position. The rats were shaved and the operating area was disinfected using iodine tincture and 75% ethanol. The left urethra was exposed and isolated after a left lateral incision was made on the abdominal area and skin, muscles and all other layers of the abdominal wall were incised sequentially. In the sham group, the left urethra was only isolated without being ligated or cut off. In all other animals, the left urethra was ligated with No. 4 suture and obstructed followed by closure of the abdominal wall layer by layer. The animals were anaesthetised again with 10% chloral hydrate 10 days later, blood was collected and serum was separated to determine FN levels. The left kidney was removed after thorough rinsing and then fixed in 4% paraformaldehyde buffer. HYP level was determined according to instructions provided with the kit.

O=C(/C=C/c1ccc(O)c(O)c1)O[C@H](Cc1ccc(O)c(O)c1)C(=O)O [RA, R(+)2-{[3-(3,4-dihydroxylphenyl-(oxo-2-propenyl)oxy]3,4-dihydroxylphenylpropionic acid]}] showed an inhibition at 0.1 µg/mL ([1]; 12 h) of 9.8 ± 2.3%, an inhibition at 0.1 µg/mL ([1]; 24 h) of 12.1 ± 2.2% and an inhibition at 0.1 µg/mL ([1]; 48 h) of 14.4 ± 2.3%. It also gave an inhibition at 1 µg/mL ([1]; 12 h) of 20.7 ± 2%, an inhibition at 1 µg/mL ([1]; 24 h) of 23 ± 2% and an inhibition at 1 µg/mL ([1]; 48 h) of 25.3 ± 2.1%. It also gave an inhibition at 10 µg/mL ([1]; 12 h) of 37.2 ± 2.6%, an inhibition at 10 µg/mL ([1]; 24 h) of 38.6 ± 1.9% and an inhibition at 10 µg/mL ([1]; 48 h) of 38.9 ± 3.2%. The inhibition at 50 µg/mL ([1]; 12 h) was 52.3 ± 4.7%, the inhibition at 50 µg/mL ([1]; 24 h) was 54.6 ± 4.6% and the inhibition at 50 µg/mL ([1]; 48 h) was 55.2 ± 3.5%. For the same molecule, the inhibition at 100 µg/mL ([1]; 12 h) was 57.2 ± 2.3%, the inhibition at 100 µg/mL ([1]; 24 h) was 59.6 ± 2.1% and the inhibition at 100 µg/mL ([1]; 48 h) was 61.8 ± 2.2%. The “HSC-T6 proliferation compared to the control group” value ([1]; different concentrations of RA) was “significantly inhibited HSC-T6 proliferation”, the “CTGF mRNA expression rate (%)” value ([2]; 10 mg/L) was 71.2 ± 8.7 % and the “CTGF mRNA expression rate (%)” value ([2]; 50 mg/L) was 63.2 ± 9.2 %. For the same molecule, the “CTGF mRNA expression in HSC-T6” value ([2]; 10 and 50 mg/L) was “significant inhibition on CTGF mRNA expression”, the “kidney lesions, light microscopic examination” value ([3]; RA treated animals vs model group) was “improvement of various degrees in lesions” and the “FN and HYP levels vs model group” value ([3]; i.v. 2.5, 5, 25, 75, 150 mg/kg, p.o. 5, 25, 150, 300 mg/kg, p<0.05 or 0.01) was “can all significantly reduce FN and HYP levels”. For the same molecule, the HYP ([3]; i.v. 2.5 mg/kg) was 612 ± 102 µg/g, the HYP ([3]; i.v. 5 mg/kg) was 605 ± 118 µg/g and the HYP ([3]; i.v. 25 mg/kg) was 573 ± 98 µg/g. For the same molecule, the HYP ([3]; i.v. 75 mg/kg) was 533 ± 94 µg/g, the HYP ([3]; i.v. 150 mg/kg) was 526 ± 121 µg/g and the HYP ([3]; p.o. 2.5 mg/kg) was 705 ± 162 µg/g. The HYP ([3]; p.o. 5 mg/kg) was 612 ± 118 µg/g, the HYP ([3]; p.o. 25 mg/kg) was 573 ± 98 µg/g and the HYP ([3]; p.o. 150 mg/kg) was 563 ± 94 µg/g. The HYP ([3]; p.o. 300 mg/kg) was 556 ± 121 µg/g, the FN ([3]; i.v. 2.5 mg/kg) was 22.7 ± 6.0 mg/L and the FN ([3]; i.v. 5 mg/kg) was 19.9 ± 6.3 mg/L. It also gave an FN ([3]; i.v. 25 mg/kg) of 17.7 ± 6.2 mg/L, an FN ([3]; i.v. 75 mg/kg) of 16.5 ± 4.3 mg/L and an FN ([3]; i.v. 150 mg/kg) of 16.4 ± 4.4 mg/L. The FN ([3]; p.o. 2.5 mg/kg) was 22.4 ± 6.5 mg/L, the FN ([3]; p.o. 5 mg/kg) was 19.8 ± 6.2 mg/L and the FN ([3]; p.o. 25 mg/kg) was 17.5 ± 6.3 mg/L. For the same molecule, the FN ([3]; p.o. 150 mg/kg) was 17.2 ± 4.3 mg/L and the FN ([3]; p.o. 300 mg/kg) was 17.2 ± 4.4 mg/L.
